In patent US11000033B2, “Ketone or oxime compound, and herbicide” (NISSAN CHEMICAL CORPORATION, priority 2014, dated 2021):

Key:
Format in all cases: in vivo
[1] = test system: Abutilon theophrasti; experiment: Test Example 4: herbicidal effect by soil treatment (symbol M); details: application herbicide amount 320 g/ha
In short: (§1)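 Seeds were sown in sterilized diluvial soil, covered with about 1.5 cm of soil, and the soil surface was sprayed with a water-diluted emulsion of the compound at a predetermined rate. Plants grew in a greenhouse at 25° C. to 30° C.; effects were scored visually 3 weeks after application.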

[2] = test system: directly sowed rice plant; experiment: Test Example 3: effect on crop by foliage application, Wagner pot (symbol b); details: application herbicide amount 320 g/ha
In short: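 Steps: fill a 1/10000-are Wagner pot with alluvial soil; add water and mix to submerge at 0.1–0.5 cm depth; sow rice plus Echinochloa crus-galli var. crus-galli, Leptochloa chinensis and Cyperus difformis; grow in a 25–30 °C greenhouse.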

[3] = test system: beet; experiment: Test Example 5: effect on crop by foliage application, plastic box (symbol f); details: 320 g/ha, 3 weeks after application
In short: (§2)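 Crop seed is sown alongside grass and broadleaf weed species in spots in sterilized diluvial soil, then covered to a depth of about 1.5 cm. Plants grow in a greenhouse kept at 25° C. to 30° C.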

[4] = test system: Amaranthus retroflexus; experiment: Test Example 4: herbicidal effect by soil treatment (symbol N); details: application herbicide amount 320 g/ha
In short: as §1

[5] = test system: corn; experiment: Test Example 4: effect on crop by soil treatment (symbol c); details: application herbicide amount 320 g/ha
In short: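 Crop seed is sown in spots together with several weed species in a box of sterilized diluvial soil. It is covered by about 1.5 cm of soil and kept in a greenhouse held between 25° C. and 30° C.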

[6] = test system: Stellaria media; experiment: Test Example 5: herbicidal effect by foliage application, plastic box (symbol P); details: 320 g/ha, 3 weeks after application
In short: (§3)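 Emulsion formulation, diluted with water to the intended rate, was applied uniformly to leaves by small sprayer. Recipients were 14-day greenhouse-grown seedlings (25° C. to 30° C.). Assessment followed at 3 weeks.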

[7] = test system: wheat; experiment: Test Example 5: effect on crop by foliage application, plastic box (symbol e); details: 320 g/ha, 3 weeks after application
In short: as §2

[8] = test system: Digitaria ciliaris; experiment: Test Example 4: herbicidal effect by soil treatment (symbol F); details: application herbicide amount 320 g/ha
In short: as §1

[9] = test system: Leptochloa chinensis; experiment: Test Example 3: herbicidal effect by foliage application, Wagner pot (symbol D); details: application herbicide amount 320 g/ha
In short: (§4)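 Alluvial soil was flooded to a depth of 0.1–0.5 cm, seeded with the weeds and rice, and kept in a greenhouse at 25–30 °C. After 14 days of growth, the foliage received a small-sprayer application of emulsion diluted to the intended rate; injury was rated at 3 weeks.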

[10] = test system: Apera spica-venti; experiment: Test Example 5: herbicidal effect by foliage application, plastic box (symbol L); details: 320 g/ha, 3 weeks after application
In short: as §3

[11] = test system: Lolium multiflorum Lam.; experiment: Test Example 4: herbicidal effect by soil treatment (symbol K); details: application herbicide amount 320 g/ha
In short: as §1

[12] = test system: Echinochloa crus-galli var. crus-galli; experiment: Test Example 4: herbicidal effect by soil treatment (symbol H); details: application herbicide amount 320 g/ha
In short: as §1

[13] = test system: rapeseed; experiment: Test Example 5: effect on crop by foliage application, plastic box (symbol g); details: 320 g/ha, 3 weeks after application
In short: as §2

[14] = test system: Chenopodium album; experiment: Test Example 5: herbicidal effect by foliage application, plastic box (symbol O); details: 320 g/ha, 3 weeks after application
In short: as §3

[15] = test system: Avena fatua; experiment: Test Example 5: herbicidal effect by foliage application, plastic box (symbol I); details: 320 g/ha, 3 weeks after application
In short: as §3

[16] = test system: Setaria viridis; experiment: Test Example 5: herbicidal effect by foliage application, plastic box (symbol G); details: 320 g/ha, 3 weeks after application
In short: as §3

[17] = test system: Cyperus difformis; experiment: Test Example 3: herbicidal effect by foliage application, Wagner pot (symbol E); details: application herbicide amount 320 g/ha
In short: as §4

[18] = test system: corn; experiment: Test Example 5: effect on crop by foliage application, plastic box (symbol c); details: 320 g/ha, 3 weeks after application
In short: as §2

[19] = test system: soybean; experiment: Test Example 4: effect on crop by soil treatment (symbol d); details: application herbicide amount 320 g/ha
In short: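 Plants are raised in a greenhouse (25° C. to 30° C.) from spot-sown seed, which sits under about 1.5 cm of sterilized diluvial soil in a box shared with weed species.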

[20] = test system: Abutilon theophrasti; experiment: Test Example 5: herbicidal effect by foliage application, plastic box (symbol M); details: 320 g/ha, 3 weeks after application
In short: as §3

[21] = test system: Lolium multiflorum Lam.; experiment: Test Example 5: herbicidal effect by foliage application, plastic box (symbol K); details: 320 g/ha, 3 weeks after application
In short: as §3

Row | Structure (SMILES) | M: Abutilon theophrasti, herbicidal effect grade [1] | effect on crop b (directly sowed rice plant), grade 0-5 [2] | f: beet, effect on crop grade [3] | N: Amaranthus retroflexus, herbicidal effect grade [4] | c: corn, effect on crop grade [5] | P: Stellaria media, herbicidal effect grade [6] | e: wheat, effect on crop grade [7] | F: Digitaria ciliaris, herbicidal effect grade [8] | herbicidal effect on D (Leptochloa chinensis), grade 0-5 [9] | L: Apera spica-venti, herbicidal effect grade [10] | K: Lolium multiflorum Lam., herbicidal effect grade [11] | H: Echinochloa crus-galli var. crus-galli, herbicidal effect grade [12] | g: rapeseed, effect on crop grade [13] | O: Chenopodium album, herbicidal effect grade [14] | I: Avena fatua, herbicidal effect grade [15] | G: Setaria viridis, herbicidal effect grade [16] | herbicidal effect on E, grade 0-5 [17] | c: corn, effect on crop grade [18] | d: soybean, effect on crop grade [19] | M: Abutilon theophrasti, herbicidal effect grade [20] | also measured
1 | Cc1cc(C)c(C2=C(O)CC(CC(=O)c3ccc(F)cc3)C2=O)c(C)c1 (stereo not drawn) [2-032] | 0 (Herbicidal ratio of 5% or lower (almost no effect)) | 5 (Herbicidal ratio of 90% or more (almost completely withered)) | 0 (Herbicidal ratio of 5% or lower (almost no effect)) | 0 (Herbicidal ratio of 5% or lower (almost no effect)) | 1 (Herbicidal ratio of 5% or higher and lower than 20%) | 0 (Herbicidal ratio of 5% or lower (almost no effect)) | 1 (Herbicidal ratio of 5% or higher and lower than 20%) | 4 (Herbicidal ratio of 70% or higher and lower than 90%) | 3 (Herbicidal ratio of 40% or higher and lower than 70%) | 5 (Herbicidal ratio of 90% or more (almost completely withered)) | 5 (Herbicidal ratio of 90% or more (almost completely withered)) | 4 (Herbicidal ratio of 70% or higher and lower than 90%) | 4 (Herbicidal ratio of 70% or higher and lower than 90%) | 0 (Herbicidal ratio of 5% or lower (almost no effect)) | 3 (Herbicidal ratio of 40% or higher and lower than 70%) | 5 (Herbicidal ratio of 90% or more (almost completely withered)) | 4 (Herbicidal ratio of 70% or higher and lower than 90%) | 1 (Herbicidal ratio of 5% or higher and lower than 20%) | 0 (Herbicidal ratio of 5% or lower (almost no effect)) | 0 (Herbicidal ratio of 5% or lower (almost no effect)) | K: Lolium multiflorum Lam., herbicidal effect grade [21]: 5 (Herbicidal ratio of 90% or more (almost completely withered))
2 | CON=C(C)CC1CC(O)=C(c2c(C)cc(Br)cc2C)C1=O (stereo not drawn) [6-003] | 5 (Herbicidal ratio of 90% or more (almost completely withered)) | 5 (Herbicidal ratio of 90% or more (almost completely withered)) | 0 (Herbicidal ratio of 5% or lower (almost no effect)) | 3 (Herbicidal ratio of 40% or higher and lower than 70%) | 4 (Herbicidal ratio of 70% or higher and lower than 90%) | 2 (Herbicidal ratio of 20% or higher and lower than 40%) | 0 (Herbicidal ratio of 5% or lower (almost no effect)) | 5 (Herbicidal ratio of 90% or more (almost completely withered)) | 5 (Herbicidal ratio of 90% or more (almost completely withered)) | 5 (Herbicidal ratio of 90% or more (almost completely withered)) | 5 (Herbicidal ratio of 90% or more (almost completely withered)) | 5 (Herbicidal ratio of 90% or more (almost completely withered)) | 4 (Herbicidal ratio of 70% or higher and lower than 90%) | 1 (Herbicidal ratio of 5% or higher and lower than 20%) | 5 (Herbicidal ratio of 90% or more (almost completely withered)) | 5 (Herbicidal ratio of 90% or more (almost completely withered)) | 5 (Herbicidal ratio of 90% or more (almost completely withered)) | 5 (Herbicidal ratio of 90% or more (almost completely withered)) | 0 (Herbicidal ratio of 5% or lower (almost no effect)) | 3 (Herbicidal ratio of 40% or higher and lower than 70%) | K: Lolium multiflorum Lam., herbicidal effect grade [21]: 5 (Herbicidal ratio of 90% or more (almost completely withered))
